Experimental data reported in patent EP4656642A1, “ESTROGEN RECEPTOR PROTEOLYSIS TARGETING CHIMERA COMPOUND AND USE THEREOF” (GAN & LEE PHARM CO., LTD, priority 2023, dated 2024).
Residue numbers refer to the chain shown, from its start. Where two headings read alike, the source gives them in different places.

Legend:
Format in all cases: cell-based
VCaP cells = experiment: Inhibition of proliferation of VCaP cells (WST-8, 168 hours)
Protocol: Test Example 7 Inhibitory activity of the compounds disclosed in the present disclosure on the proliferation of VCaP cells
VCaP cells (ATCC, CRL-2876) were cultured in DMEM (Gibco, 11995-065) complete medium containing 10% fetal bovine serum (Hyclone, SH30406.05). On the first day of the experiment, VCaP cells were inoculated in 96-well plates at a density of 15,000 cells/well using DMEM medium containing 10% fetal bovine serum, with 100µL of cell suspension per well, and placed in a cell culture incubator with 5% CO2 at 37°C overnight. […] The compound concentrations were prepared in complete DMEM medium and serially diluted 5-fold starting from 10 µM, resulting in a total of nine concentration points. Wells receiving 100 µL of DMEM medium containing 10% FBS only were used as blank controls. The plates were incubated at 37°C in a 5% CO2 incubator for 168 hours.

LNCAP FGC cells = experiment: Inhibition of LNCAP cell proliferation (WST-8, 96 hours)
Protocol: Test Example 8 Inhibitory activity of the compounds disclosed in the present disclosure on LNCAP cell proliferation
LNCAP FGC cells (ATCC, CLR-1740) were cultured in RPMI 1640 (ATCC, 30-2001) complete medium containing 10% fetal bovine serum (Hyclone, SH30406.05). On the first day of the experiment, LNCaP FGC cells were inoculated in 96-well plates at a density of 5,000 cells/well using RPMI 1640 medium containing 10% fetal bovine serum, with 100µL of cell suspension per well, and placed in a cell culture incubator with 5% CO2 at 37°C overnight. […] The compound concentrations were prepared in complete […] medium and serially diluted 5-fold starting from 10 µM, resulting in a total of nine concentration points. Wells receiving 100 µL of RPMI 1640 medium containing 10% FBS only were used as controls. The plates were incubated at 37°C in a 5% CO2 incubator for 96 hours.

AR protein [1] = target: T1, AR protein (Homo sapiens, UniProt P10275, T878A); experiment: Degradation of AR protein in LNCAP cells (Western blot, 8 h); details: LNCaP FGC cells
T1 construct: host or cells: LNCaP FGC
T1 sequence (P10275 1-920 T878A): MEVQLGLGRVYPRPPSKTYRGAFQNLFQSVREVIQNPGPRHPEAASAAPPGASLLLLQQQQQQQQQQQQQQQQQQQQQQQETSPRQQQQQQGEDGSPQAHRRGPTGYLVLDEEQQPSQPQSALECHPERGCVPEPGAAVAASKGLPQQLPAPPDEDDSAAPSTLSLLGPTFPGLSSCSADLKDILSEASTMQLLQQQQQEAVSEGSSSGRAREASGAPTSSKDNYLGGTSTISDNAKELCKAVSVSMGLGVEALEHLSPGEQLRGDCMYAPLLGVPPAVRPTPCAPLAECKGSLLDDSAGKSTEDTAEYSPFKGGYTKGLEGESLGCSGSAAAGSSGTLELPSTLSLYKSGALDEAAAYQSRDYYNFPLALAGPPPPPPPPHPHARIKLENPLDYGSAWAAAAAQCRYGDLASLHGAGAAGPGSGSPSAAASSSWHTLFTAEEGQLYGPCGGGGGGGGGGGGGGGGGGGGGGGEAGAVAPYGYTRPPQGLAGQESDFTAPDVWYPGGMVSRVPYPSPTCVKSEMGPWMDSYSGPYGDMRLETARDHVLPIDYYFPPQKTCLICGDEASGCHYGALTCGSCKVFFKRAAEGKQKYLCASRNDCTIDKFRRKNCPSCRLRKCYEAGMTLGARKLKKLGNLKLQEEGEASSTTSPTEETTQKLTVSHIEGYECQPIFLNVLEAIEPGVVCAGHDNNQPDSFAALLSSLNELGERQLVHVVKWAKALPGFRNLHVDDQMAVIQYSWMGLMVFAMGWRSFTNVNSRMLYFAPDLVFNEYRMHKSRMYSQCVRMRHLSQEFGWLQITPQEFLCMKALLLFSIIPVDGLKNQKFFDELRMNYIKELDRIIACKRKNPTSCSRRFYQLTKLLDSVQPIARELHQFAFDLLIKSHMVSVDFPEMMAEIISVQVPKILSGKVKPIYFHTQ
Protocol: After 8 h, the culture medium was discarded, and the cells were washed with PBS. After the cells were washed with PBS, RIPA lysis buffer containing 1% Protease Inhibitor Cocktail was added, and the total protein extract was obtained after lysis and centrifugation, and the protein concentration in the extract was detected by BCA method. Protein electrophoresis was carried out by SDS-PAGE, after which the proteins were transferred to PVDF (Millipore Sigma Catalog No. PSRP010R5) membrane by 100V constant voltage electrotransfer for 60 min, and the PVDF membrane was placed in 1×TBST solution with 5% milk and blocked at room temperature for 1h. […] The primary antibody solution was discarded, and the PVDF membrane was washed three times with 1× TBST for 5 min each. […] The secondary antibody solution was discarded, and the PVDF membrane was washed three times with 1× TBST for 5 min each. Western membrane imaging was performed using a dual-color infrared laser imaging system (Licor catalog number Odyssey CLX). Bands were analyzed in grayscale using the software Image Studio. For each sample, GAPDH protein bands were detected as internal reference. The degradation rates of the AR protein for the compounds and positive control sample were calculated based on the grayscale of the protein bands.

AR protein [2] = target: T2, AR protein (Homo sapiens, UniProt P10275); details: 8 h
T2 construct: host or cells: VCaP
T2 sequence (P10275 1-920): T1 sequence (P10275 1-920 T878A) with A878T
Protocol: Test Example 9 Degradation activity of the compounds disclosed in the present disclosure against AR protein in VCAP cells (cell source: ATCC)
AR-positive human prostate cancer cells, VCaP, were inoculated in six-well microplates (Thermo Catalog No. 140675) in DMEM (GiBco Catalog No. 11995-065) containing 10% FBS (Hyclone Catalog No. SH30406.05) at a density of 3 × 10^5 cells/well. […] After 8 h, the culture medium was discarded, and cells were washed with PBS, then RIPA lysis buffer containing 1% Protease Inhibitor Cocktail was added, and the total protein extract was obtained after lysis and centrifugation, and the protein concentration in the extract was detected by BCA method. Protein electrophoresis was carried out by SDS-PAGE, after which the protein was transferred to PVDF (Millipore Sigma catalog number PSRP010R5) membrane by 100V constant-voltage electrotransfer for 60 min, and the PVDF membrane was placed in 1×TBST solution with 5% milk and blocked at room temperature for 1 h. The primary antibody solution (Anti-Androgen receptor, Cell Signaling Technology Catalog No. 5153S; 1: 2000 dilution) was prepared and incubated overnight at 4°C. The primary antibody solution was discarded, and the PVDF membrane was washed three times with 1× TBST for 5 min each. The secondary antibody solution (Thermo catalog number SA5-35571; 1:7500 dilution) was prepared, and the secondary antibody dilution was incubated at room temperature for 1h. The secondary antibody solution was discarded, and the PVDF membrane was washed three times with 1×TBST for 5 min each. Western membrane imaging was performed using a dual-color infrared laser imaging system (Licor catalog number Odyssey CLX). Bands were analyzed in grayscale using the software Image Studio. For each sample, GAPDH protein bands were detected as internal reference. The degradation rates of the AR protein for the compounds and positive control sample were calculated based on the grayscale of the protein bands.

[3] = LNCAP FGC cells, 96 hours, WST-8

Structure (SMILES)	IC50 (VCaP cells; VCaP cells, 168 hours, WST-8)	IC50 (LNCAP FGC cells; [3])	Degradation rates of the AR protein in LNCAP cells, 10 nM (%) (AR protein [1])	Degradation rates of the AR protein in LNCAP cells, 100 nM (%) (AR protein [1])	Degradation rates of the AR protein in VCAP cells, 0.5 nM (AR protein [2])	Degradation rates of the AR protein in VCAP cells, 5 nM (AR protein [2])	IC50 (VCaP cells)	IC50 (LNCAP FGC cells)
COc1cc(O[C@H]2CC[C@H](NC(=O)c3ccc(N4CCC(CN5CCC6(CC5)COc5c6ccc6c5C(=O)N(C5CCC(=O)NC5=O)C6)(OC)CC4)nn3)CC2)ccc1C#N (relative stereo) [2-264]	0.003 µM	33.6 µM	52%	71%				
N#Cc1ccc(O[C@H]2CC[C@H](NC(=O)c3ccc(N4CCC(CN5CCC6(CC5)COc5c6ccc6c5C(=O)N(C5CCC(=O)NC5=O)C6)CC4)nn3)CC2)cc1Cl (relative stereo) [2-313]		34.3 µM	75%	79%	78%	89%		
C[C@H]1CC2(CCN(c3ccc(N4CCC(C)(CN5CCC6(CCc7cc8c(cc7O6)C(=O)N(C6CCC(=O)NC6=O)C8)CC5)CC4)cc3)CC2)CN1c1ccc(C#N)c(Cl)c1 (stereo partly drawn) [2-101]							0.01 µM	5.08 µM
COC1(CN2CCC3(CCc4cc5c(cc4O3)C(=O)N(C3CCC(=O)NC3=O)C5)CC2)CCN(c2ccc(N3CCC4(CC3)C[C@H](C)N(c3ccc(C#N)c(Cl)c3)C4)cc2)CC1 (stereo partly drawn) [2-99]							0.007 µM	2.71 µM
COc1cc(O[C@H]2CC[C@H](NC(=O)c3ccc(N4CCC(CN5CCC6(CC5)COc5c6ccc6c5C(=O)N(C5CCC(=O)NC5=O)C6)CC4)nn3)CC2)ccc1C#N (relative stereo) [2-314]		42.4 µM	69%	76%	86%	91%		
